Laboratory results from PubChem BioAssay AID1549 (Sanford-Burnham Center for Chemical Genomics, 2009).
The source made the active and inactive calls. No rule for the calls is given here.

Target: Influenza A virus M2 proton channel (A/TW/4845/1999 H1N1)
Experiment: M2 proton channel binding, NMR based, influenza A virus H1N1 strain (AID 1549)
Conditions: NMR binding screen, M2 protein

SMILES | Kd
NC(=O)CSc1nc2ccccc2c(=O)[nH]1 | > 4 mM (inactive)
CC(=O)Nc1ccc(C)cc1NC(C)=O | > 4 mM (inactive)
O=C(O)C1CCN(c2ccc(C(F)(F)F)cn2)CC1 | > 4 mM (inactive)
Nc1nnc(SCc2ccc3c(c2)OCO3)s1 | > 4 mM (inactive)
OCCN1CCN(C(=S)c2ccc(Cl)cc2)CC1 | > 4 mM (inactive)
Fc1ccc2onc(C3CCNCC3)c2c1 | > 4 mM (inactive)
O=C(Nc1c[nH]c(=O)[nH]c1=O)c1cccs1 | > 4 mM (inactive)
C=C[C@@](C)(O)CCC1C(=C)CCC2[C@@](C)(CO)CCC[C@]12C (some centres not stated) | > 4 mM (inactive)
NC(=O)CN1CCCCCC1=O | > 4 mM (inactive)
Cn1c2c(c(=O)n(C)c1=O)CN(Cc1ccco1)CN2 | > 4 mM (inactive)
COc1nc(-c2ccccc2)ccc1-c1noc(C)n1 | > 4 mM (inactive)
O=C(Nn1cnnc1)c1cccc(C(F)(F)F)c1 | > 4 mM (inactive)
CN1CCN(C2CCSC2)CC1 (configuration not stated) | > 4 mM (inactive)
COC(=O)c1cn(C(=O)OC)c2ccccc12 | > 4 mM (inactive)
CN1CCN(S(=O)(=O)c2ccc(=O)[nH]c2)CC1 | > 4 mM (inactive)
Cc1noc(C)c1C(=O)NCc1ccco1 | > 4 mM (inactive)
Nc1ccccc1C(=O)N1CCNC(=O)C1 | > 4 mM (inactive)
COc1cc2c(cc1O)CC1c3c(cc(O)c(OC)c3-2)CCN1C (configuration not stated) | > 4 mM (inactive)
CC[C@H]1CN2CCc3cc(OC)c(OC)cc3C2C[C@@H]1CC1NCCc2cc(OC)c(OC)cc21 (some centres not stated) | > 4 mM (inactive)
Cc1nc(NCc2ccco2)nc2c1C(=O)CC(C)C2 (configuration not stated) | > 4 mM (inactive)
NCCc1cnc[nH]1 | > 4 mM (inactive)
NS(=O)(=O)c1ccc(F)cc1 | > 4 mM (inactive)

SMILES | Kd
CC1CCCN(C/C(O)=C(\C#N)c2nc3ccccc3[nH]2)C1 (configuration not stated) | > 4 mM (inactive)
OC1CSc2ncnn2C1 (configuration not stated) | > 4 mM (inactive)
CC1=CCc2c(cc3oc(C)cc(=O)c3c2O)OC1 | > 4 mM (inactive)
Cc1noc(C)c1C(=O)N1CCC2(CC1)OCCO2 | > 4 mM (inactive)
O=C1CS/C(=N/S(=O)(=O)c2ccccc2)N1 | > 4 mM (inactive)
O=C(Nc1nc2ccccc2s1)c1ccc(=O)[nH]n1 | > 4 mM (inactive)
CCOC(=O)Cc1cc(=O)n2[nH]c(C)cc2n1 | > 4 mM (inactive)
Cc1nc2[nH]onc2c2nccc(=O)c12 | > 4 mM (inactive)
COCC(=O)/C=C1\Sc2ccccc2N1C | > 4 mM (inactive)
FC(F)(F)c1cc(-c2ccco2)nc(N2CCOCC2)n1 | > 4 mM (inactive)
O=C1OC(N2CCOCC2)c2ccccc21 (configuration not stated) | > 4 mM (inactive)
Cn1c(=O)c2[nH]cnc2n(-c2ccccc2)c1=O | > 4 mM (inactive)
COC1=CC(C)[C@@H]2C[C@H]3OC(=O)C[C@H]4C(C)=C(OC)C(=O)C([C@@]34C)[C@@]2(C)C1=O (some centres not stated) | > 4 mM (inactive)
CSc1ncc(CO)n1Cc1ccccc1 | > 4 mM (inactive)
CN(C)S(=O)(=O)c1ccc(N2CCOCC2)nc1 | > 4 mM (inactive)
O=c1[nH]oc2ccccc12 | > 4 mM (inactive)
CN(c1ccccc1C(=O)N1CCCC1)S(C)(=O)=O | > 4 mM (inactive)
Nc1ncnc2c1ncn2CCN1CCOCC1 | > 4 mM (inactive)
O=C(CN1CCOCC1)Nc1cccc(Br)c1 | > 4 mM (inactive)
O=C1C=C(Nc2ccc(O)cc2)c2ccccc2C1=O | > 4 mM (inactive)
C(=N\n1cnnc1)/c1cccs1 | > 4 mM (inactive)
C[C@@H](N)[C@@H](O)c1ccccc1 | > 4 mM (inactive)

SMILES | Kd
CCc1c(C(=O)N2CCOCC2)csc1C | > 4 mM (inactive)
COc1ccc(NC(=O)C(N)=O)cc1Cl | > 4 mM (inactive)
CC1C[C@H]2CC(=O)[C@H]3CCCN4CCC[C@H]2[C@]34C1 (some centres not stated) | > 4 mM (inactive)
Cc1c(CCO)c(=O)n2c([nH]c3ccccc32)c1C#N | > 4 mM (inactive)
O=C(Cc1c(F)cccc1Cl)Nc1ccncc1 | > 4 mM (inactive)
O=C(c1ccco1)N1CCNCC1 | > 4 mM (inactive)
Cc1onc(-c2ccc(F)cc2)c1C(=O)O | > 4 mM (inactive)
CC(=O)O[C@H]1CC[C@@]2(C)C(=CC(=O)C3C4CCC(C(C)CCCC(C)C)[C@@]4(C)CCC32)C1 (some centres not stated) | > 4 mM (inactive)
CC(C)=CCCC1(C)C=Cc2c(O)c3c(c(CC=C(C)C)c2O1)OC12C(=CC4CC1C(C)(C)OC2(C/C=C(/C)C(=O)O)C4=O)C3=O (configuration not stated) | > 4 mM (inactive)
Cc1ccccc1NC(=O)c1ccccc1 | > 4 mM (inactive)
Cc1cc(NC(=O)CCCn2cnc([N+](=O)[O-])n2)no1 | > 4 mM (inactive)
N#Cc1ccccc1CSc1ccccn1 | > 4 mM (inactive)
O=C1C[C@@H](c2ccc(O)cc2)Oc2cc(O)cc(O)c21 | > 4 mM (inactive)
Nc1nc2ncc(CNc3ccc(C(=O)N[C@@H](CCC(=O)O)C(=O)O)cc3)nc2c(=O)[nH]1 | > 4 mM (inactive)
Cc1cc(NC(=O)c2cc(C)on2)no1 | > 4 mM (inactive)
COC(=O)Nc1nc2c(C)cccc2s1 | > 4 mM (inactive)
Cc1ccccc1N1CCN(C(=O)C2CCCCC2)CC1 | > 4 mM (inactive)
Cn1ccc(NC(=S)NC2CCCC2)n1 | > 4 mM (inactive)
NC(=O)c1ccc(NC(=O)C2CC2)cc1 | > 4 mM (inactive)
Cc1nnc(N2CCc3ccccc3C2)[nH]c1=O | > 4 mM (inactive)
COC(=O)c1ccc(NC(=O)CC2NCCNC2=O)cc1 (configuration not stated) | > 4 mM (inactive)
CC(=O)c1cccc(NC(=O)Nc2c(C)nn(C)c2C)c1 | > 4 mM (inactive)

SMILES | Kd
N#Cc1nc(-c2cccs2)oc1N1CCOCC1 | > 4 mM (inactive)
O=C(O)Cn1c(=O)sc2ccccc21 | > 4 mM (inactive)
O=C1c2ccncc2C(=O)N1CO | > 4 mM (inactive)
Nc1[nH]c(=S)[nH]c(=O)c1-c1ccccc1 | > 4 mM (inactive)
Cn1c(O)c(/C=C2\C=CC=N2)c(=O)[nH]c1=S | > 4 mM (inactive)
Cc1cc(O)c(C)c(O)c1C(=O)O | > 4 mM (inactive)
c1ccc(SCc2nc(-c3cccnc3)no2)cc1 | > 4 mM (inactive)
OCc1ccccc1O[C@@H]1O[C@H](CO)[C@@H](O)[C@H](O)[C@H]1O | > 4 mM (inactive)
Cc1occc1C(=O)Nc1sccc1C(N)=O | > 4 mM (inactive)
c1cncc(Cn2cccc2)c1 | > 4 mM (inactive)
COc1ccccc1C(=O)Nc1ccccn1 | > 4 mM (inactive)
NCc1csc(-c2ccccc2)n1 | > 4 mM (inactive)
COc1ccc(-c2cc(=O)c3ccccc3o2)cc1OC | > 4 mM (inactive)
O=C(Nc1ccc2c(c1)OCO2)c1cccs1 | > 4 mM (inactive)
O=C(NC(=S)NC1CCS(=O)(=O)C1)c1ccccc1 (configuration not stated) | > 4 mM (inactive)
O=C(NCc1ccccc1Br)c1ccco1 | > 4 mM (inactive)
Nc1ccccc1N1CCOCC1 | > 4 mM (inactive)
CN1CCN(C(=S)NC(=O)c2ccn(C)n2)CC1 | > 4 mM (inactive)
CC(=O)c1c(C)nc(C)nc1NC(=O)C(C)C | > 4 mM (inactive)
CN(C)C(=O)Nc1ccc(F)cc1F | > 4 mM (inactive)
Cc1sc2nc(NCCO)[nH]c(=O)c2c1C | > 4 mM (inactive)
